Patent US8916681B2, “Compound, use and method” (Medical Research Council, priority 2007, dated 2014)
Entries after “also recorded” stand apart in the source; their conditions may differ. Non-standard residues stand in square brackets, D forms with d. Residues, ends and D or L forms follow the SMILES beside them.

Columns and labels:
[1] = target: T1, GnRH receptors (Homo sapiens, UniProt P30968); experiment: Binding to GnRH receptors (data not shown)
T1 sequence (P30968 1-328): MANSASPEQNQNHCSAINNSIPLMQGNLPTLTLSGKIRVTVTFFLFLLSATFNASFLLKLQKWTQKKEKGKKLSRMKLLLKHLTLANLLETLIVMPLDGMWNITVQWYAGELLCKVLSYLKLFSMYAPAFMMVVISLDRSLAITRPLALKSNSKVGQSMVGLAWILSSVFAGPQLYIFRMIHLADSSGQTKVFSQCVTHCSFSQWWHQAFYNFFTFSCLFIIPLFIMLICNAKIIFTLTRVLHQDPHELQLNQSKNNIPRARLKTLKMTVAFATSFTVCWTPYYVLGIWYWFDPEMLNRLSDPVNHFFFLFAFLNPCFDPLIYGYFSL

[2] = target: GPR54 (Homo sapiens, UniProt Q969F8); experiment: Inositol phosphate (IP) stimulation assay in CHO/gpr-54 cells; type: cell-based; set-up: G. Vassart, Univ; Brussels; conditions: CHO cells stably-expressing human gpr-54
Chain of GPR54 (Q969F8 whole entry): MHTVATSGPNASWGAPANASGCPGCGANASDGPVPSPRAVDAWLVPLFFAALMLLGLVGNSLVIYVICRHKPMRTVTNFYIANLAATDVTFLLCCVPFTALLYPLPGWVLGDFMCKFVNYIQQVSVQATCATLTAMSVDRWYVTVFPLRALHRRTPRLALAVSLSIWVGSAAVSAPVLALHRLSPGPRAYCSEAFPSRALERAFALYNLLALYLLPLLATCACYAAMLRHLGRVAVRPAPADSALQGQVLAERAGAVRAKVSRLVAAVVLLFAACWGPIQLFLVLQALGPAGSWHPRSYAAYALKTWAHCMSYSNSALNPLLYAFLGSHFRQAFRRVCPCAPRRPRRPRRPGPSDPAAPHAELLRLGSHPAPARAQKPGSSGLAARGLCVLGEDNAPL

[3] = tested on: serum LH; experiment: Serum LH in orchidectomized (castrated) male rats, icv injections; type: in vivo, rat; conditions: 1 nmol at 0, 60 and 120 min; significant at 240 min
Description: In addition, repeated icy injection of the peptide 234 was also conducted in orchidectomized (ORX) rats. The animals were subjected to bilateral ORX via the scrotal route, and after 1-wk after surgery were subjected to cannula implantation as described above. The test involved three intracerebral injections of the antagonist (1 nmol; at 0-, 60- and 120-min of the procedure) and blood sampling by jugular venipuncture in basal conditions (0-min) and 15-min after each icy injection. Additional blood samples were obtained at 180- and 240-min after central administration of peptide 234. For each time-point, 10-12 samples were taken per group.
Serum LH levels were measured in a volume of 50 μl using a double-antibody method and radioimmunoassay kits supplied by the NIH (Dr. AF Parlow, NIDDK). […] For each hormone, all samples were measured in the same assay. […]
Hormonal determinations were conducted in duplicate, with a minimal total number of 10 samples per group. When appropriate, in addition to individual time-point measurements, integrated LH secretory responses were calculated as the area under the curve (AUC), following the trapezoidal rule. […] Results were analyzed for statistically significant differences using Student t-test or ANOVA followed by Student-Newman-Keuls multiple range test (SigmaStat 2.0). […]

[4] = tested on: GnRH release; experiment: GnRH release in the stalk-median eminence, microdialysis; type: in vivo, rhesus monkey; conditions: pubertal female rhesus monkeys; 10 nM infused over 30 min through microdialysis probe
Description: Four female rhesus monkeys, born and raised in the Wisconsin National Primate Research Center, were used in this study. They were housed in pairs (cages 172×86×86 cm) in rooms with 12 h of light 12 h of darkness and controlled temperature (22° C.). The animals were fed a standard diet of Harlan 20% Protein Primate Diet twice each day, supplemented with fresh fruit several times per week. Water was available ad libitum. The protocol for this study was reviewed and approved by the Animal Care and Use Committee, University of Wisconsin, and all experiments were conducted under the guidelines established by the NIH and USDA.
The effects of peptide 234 on GnRH release were examined using the microdialysis method. This method allows collection of dialysate samples for GnRH measurement while peptide 234 was infused through the semi-permeable membrane, as described previously (25)′(24). Peptide 234 dissolved in CNS perfusion fluid was infused in the stalk median eminence region through the microdialysis probe for 30 min while dialysates were continuously collected. […]
On the day of experiment the monkey was placed in the stereotaxic apparatus under ketamine (15 mg/kg b.w.) and medetomidine (0.03-0.05 mg/kg b.w.) anesthesia. […] The x, y, and z coordinates for the S-ME were calculated using ventriculographs and the final radiographs taken during cranial pedestal implantation surgery. […]

binding to GnRH receptors [1]: did not bind
SMILES: CC(=O)N[C@H](C)C(=O)N[C@@H](CC(N)=O)C(=O)N[C@@H](Cc1c[nH]c2ccccc12)C(=O)N[C@@H](CC(N)=O)C(=O)NCC(=O)N[C@@H](Cc1ccccc1)C(=O)NCC(=O)N[C@H](Cc1c[nH]c2ccccc12)C(=O)N[C@@H](CCCNC(=N)N)C(=O)N[C@@H](Cc1ccccc1)C(N)=O [Peptide 234] (Ac-[dA]NWNGFG[dW]RF-NH2)
stimulation of IP by the peptide alone [2]: little or no stimulation; also recorded: no intrinsic IP stimulation
serum LH levels in castrated males [3]: inhibited; also recorded: tended to reduce; also recorded: blocked the increase in LH
GnRH pulses and mean GnRH levels [4]: suppressed
